Laboratory results from patent publication US9273040B2 (Merck Sharp & Dohme Corp., priority 2011, dated 2016).

Columns and labels:
[1] = biological target: T1, human Nav1.7 channels stably expressed in HEK 293 cells (Homo sapiens, UniProt Q15858); assay: PatchXpress 7000 automated patch-clamp, sodium current; assay type: cell-based; settings: 22° C., read-out: potency for the Nav 1.7 sodium ion channel (as measured by PatchXpress)
T1 construct: expressed in transfected cells
Description: (§1) To measure state and use-dependent sodium channel inhibition, test compounds were further characterized in an automated PatchXpress® assay (Molecular Devices). Two voltage-clamp protocols were used. 1) Use-dependent protocol: Cells were held at a membrane potential 20 mV negative to the potential at which ˜50% of the channels are inactivated (V0.5 inact). A train of 30 ms depolarizations to −20 mV was applied to the cells expressing Nav1.7 at a frequency of 10 Hz. […] Data was collected in the absence and presence of drug, and after drug washout. 2) A double-pulse protocol was used to measure inactivated state block. Cells were held at a potential 20 mV negative to V0.5 inact. A 8000 ms pre-pulse 7 mV positive to V0.5 inact was given followed by a hyperpolarizing 2 ms pulse to −120 mV and a 20 ms test pulse to −20 mV. Protocol was applied to cells in the absence, presence of compound and after washout. The temperature of PatchXpress instruments was maintained at 22° C. The following recording solutions were used. Internal solution (mM): 30 CsCl, 5 HEPES, 10 EGTA, 120 CsF, 5 NaF, 2MgCl2, pH=7.3 with CsOH, 324 mosmo. External solution (mM): 120 NMDG, 40 NaCl, 1 KCl, 0.5 MgCl2, 5 HEPES, 2.7 CaCl2, pH=7.5 with NMDG-OH.
(§2) For all electrophysiology experiments, offline analysis was used to correct for current rundown and to determine percent inhibition as a function of drug concentration. IC50 values were determined by fitting to the Hill equation.

[2] = biological target: T2, human Nav1.5 channels stably expressed in HEK 293 cells (Homo sapiens, UniProt Q14524); assay: as above; assay type: cell-based; settings: selectivity over Nav1.5
T2 construct: expressed in transfected cells
Description: as §1, §2

T1 sequence (Q15858 whole entry): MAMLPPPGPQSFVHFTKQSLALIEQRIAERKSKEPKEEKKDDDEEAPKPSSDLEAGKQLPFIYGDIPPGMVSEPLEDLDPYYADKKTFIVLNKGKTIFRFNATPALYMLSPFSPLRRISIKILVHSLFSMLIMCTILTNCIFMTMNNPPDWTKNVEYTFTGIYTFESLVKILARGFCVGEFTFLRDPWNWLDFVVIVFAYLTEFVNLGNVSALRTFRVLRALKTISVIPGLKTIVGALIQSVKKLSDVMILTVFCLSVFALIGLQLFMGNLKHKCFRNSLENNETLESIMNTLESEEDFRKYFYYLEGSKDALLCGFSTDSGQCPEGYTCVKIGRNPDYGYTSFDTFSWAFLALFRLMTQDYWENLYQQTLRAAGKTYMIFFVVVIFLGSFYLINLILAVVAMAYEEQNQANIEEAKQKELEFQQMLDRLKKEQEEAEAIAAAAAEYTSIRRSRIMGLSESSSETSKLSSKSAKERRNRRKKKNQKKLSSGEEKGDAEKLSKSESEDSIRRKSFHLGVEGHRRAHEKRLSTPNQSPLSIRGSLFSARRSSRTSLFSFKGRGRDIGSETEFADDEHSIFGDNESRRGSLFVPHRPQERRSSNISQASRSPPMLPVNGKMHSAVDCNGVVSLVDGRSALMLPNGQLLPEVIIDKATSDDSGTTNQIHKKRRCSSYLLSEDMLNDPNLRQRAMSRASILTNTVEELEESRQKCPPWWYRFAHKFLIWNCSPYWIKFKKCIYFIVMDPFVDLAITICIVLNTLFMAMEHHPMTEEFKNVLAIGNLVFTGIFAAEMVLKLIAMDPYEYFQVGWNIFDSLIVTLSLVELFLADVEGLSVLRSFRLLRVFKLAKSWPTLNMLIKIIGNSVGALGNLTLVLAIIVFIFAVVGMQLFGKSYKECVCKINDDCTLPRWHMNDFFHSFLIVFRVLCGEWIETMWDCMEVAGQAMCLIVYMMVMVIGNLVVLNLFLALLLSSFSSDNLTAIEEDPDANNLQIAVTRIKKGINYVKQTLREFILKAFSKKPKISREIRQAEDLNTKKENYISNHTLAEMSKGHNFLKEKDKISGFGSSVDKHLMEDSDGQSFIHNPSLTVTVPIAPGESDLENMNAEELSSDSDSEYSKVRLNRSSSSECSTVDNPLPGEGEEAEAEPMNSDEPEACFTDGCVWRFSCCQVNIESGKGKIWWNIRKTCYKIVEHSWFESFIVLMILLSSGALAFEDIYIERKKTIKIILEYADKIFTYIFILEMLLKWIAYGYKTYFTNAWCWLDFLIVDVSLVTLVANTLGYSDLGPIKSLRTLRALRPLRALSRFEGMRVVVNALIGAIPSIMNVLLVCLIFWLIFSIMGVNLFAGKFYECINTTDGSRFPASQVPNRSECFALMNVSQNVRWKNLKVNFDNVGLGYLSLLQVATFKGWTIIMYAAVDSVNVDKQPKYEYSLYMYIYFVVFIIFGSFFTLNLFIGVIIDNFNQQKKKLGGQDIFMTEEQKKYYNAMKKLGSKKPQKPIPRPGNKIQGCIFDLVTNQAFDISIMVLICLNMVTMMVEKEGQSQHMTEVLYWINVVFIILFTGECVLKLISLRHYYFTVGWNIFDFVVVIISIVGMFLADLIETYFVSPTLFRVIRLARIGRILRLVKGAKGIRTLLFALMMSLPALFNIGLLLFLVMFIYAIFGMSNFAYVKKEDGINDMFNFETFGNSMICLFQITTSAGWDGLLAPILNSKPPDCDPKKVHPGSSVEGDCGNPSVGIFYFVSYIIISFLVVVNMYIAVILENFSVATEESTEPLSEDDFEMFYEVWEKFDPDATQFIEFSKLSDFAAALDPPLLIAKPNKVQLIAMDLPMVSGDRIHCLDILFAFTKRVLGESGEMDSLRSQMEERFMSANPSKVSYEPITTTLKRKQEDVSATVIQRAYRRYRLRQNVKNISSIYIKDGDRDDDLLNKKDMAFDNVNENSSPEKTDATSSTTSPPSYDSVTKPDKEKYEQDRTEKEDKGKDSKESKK
T2 sequence (Q14524 whole entry): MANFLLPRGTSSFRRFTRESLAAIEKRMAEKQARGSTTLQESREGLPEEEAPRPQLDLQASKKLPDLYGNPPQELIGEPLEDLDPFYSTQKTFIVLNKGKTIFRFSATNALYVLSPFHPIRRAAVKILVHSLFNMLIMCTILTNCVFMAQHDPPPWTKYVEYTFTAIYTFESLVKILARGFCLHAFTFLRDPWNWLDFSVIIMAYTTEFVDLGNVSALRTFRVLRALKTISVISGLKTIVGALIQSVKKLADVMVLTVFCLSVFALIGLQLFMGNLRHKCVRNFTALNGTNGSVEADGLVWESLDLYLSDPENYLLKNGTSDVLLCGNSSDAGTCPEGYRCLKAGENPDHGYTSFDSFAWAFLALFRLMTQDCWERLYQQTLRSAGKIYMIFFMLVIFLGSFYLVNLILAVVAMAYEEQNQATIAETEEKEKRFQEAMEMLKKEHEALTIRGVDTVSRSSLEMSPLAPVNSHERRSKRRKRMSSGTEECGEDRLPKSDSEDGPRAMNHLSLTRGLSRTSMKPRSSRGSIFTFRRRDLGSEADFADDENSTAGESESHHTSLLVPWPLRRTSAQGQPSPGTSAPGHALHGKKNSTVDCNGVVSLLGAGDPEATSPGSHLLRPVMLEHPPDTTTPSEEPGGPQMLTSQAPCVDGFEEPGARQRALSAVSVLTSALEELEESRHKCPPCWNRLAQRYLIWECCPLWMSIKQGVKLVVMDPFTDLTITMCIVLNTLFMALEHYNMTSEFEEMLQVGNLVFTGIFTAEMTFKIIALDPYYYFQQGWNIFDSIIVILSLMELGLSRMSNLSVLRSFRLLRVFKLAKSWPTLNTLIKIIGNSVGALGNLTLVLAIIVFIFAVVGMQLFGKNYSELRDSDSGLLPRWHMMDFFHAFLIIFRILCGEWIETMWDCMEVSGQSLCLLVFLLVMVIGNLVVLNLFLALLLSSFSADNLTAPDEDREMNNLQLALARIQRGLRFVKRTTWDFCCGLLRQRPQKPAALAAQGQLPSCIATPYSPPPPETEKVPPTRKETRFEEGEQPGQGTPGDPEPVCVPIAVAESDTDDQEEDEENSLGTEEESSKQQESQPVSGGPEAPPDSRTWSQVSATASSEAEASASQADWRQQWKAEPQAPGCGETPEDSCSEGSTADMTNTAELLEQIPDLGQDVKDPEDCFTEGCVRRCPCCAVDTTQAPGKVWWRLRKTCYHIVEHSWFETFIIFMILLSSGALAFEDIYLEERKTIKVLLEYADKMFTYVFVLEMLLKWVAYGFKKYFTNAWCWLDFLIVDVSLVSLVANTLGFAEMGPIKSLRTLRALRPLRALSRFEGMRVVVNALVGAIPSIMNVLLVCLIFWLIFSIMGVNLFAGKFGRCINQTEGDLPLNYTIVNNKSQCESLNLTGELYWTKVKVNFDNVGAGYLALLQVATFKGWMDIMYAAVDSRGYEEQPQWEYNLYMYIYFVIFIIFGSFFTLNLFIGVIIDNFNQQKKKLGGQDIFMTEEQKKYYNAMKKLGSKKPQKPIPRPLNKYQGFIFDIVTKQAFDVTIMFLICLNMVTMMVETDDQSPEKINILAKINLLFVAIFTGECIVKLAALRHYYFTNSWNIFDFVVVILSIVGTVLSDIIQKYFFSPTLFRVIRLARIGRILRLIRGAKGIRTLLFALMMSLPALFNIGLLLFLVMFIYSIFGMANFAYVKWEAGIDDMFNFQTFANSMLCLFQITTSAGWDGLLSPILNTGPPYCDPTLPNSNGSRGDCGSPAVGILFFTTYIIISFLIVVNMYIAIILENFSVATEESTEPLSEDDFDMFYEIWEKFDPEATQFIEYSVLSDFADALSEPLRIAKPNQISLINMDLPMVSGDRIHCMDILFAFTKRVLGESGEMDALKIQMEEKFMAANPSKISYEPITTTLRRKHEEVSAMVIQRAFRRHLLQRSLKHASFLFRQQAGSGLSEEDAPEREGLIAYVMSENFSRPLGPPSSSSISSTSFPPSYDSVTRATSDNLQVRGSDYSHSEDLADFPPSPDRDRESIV

SMILES	IC50 [1]	ratio of Nav 1.5:Nav 1.7 potency, determined by PatchXpress measurement [2]
O=c1oc2cc(S(=O)(=O)Nc3ncns3)c(F)cc2n1C[C@H]1C[C@@H]1I [Compound 11-9, 5-fluoro-3-{[(1R,2S)-2-iodocyclopropyl]methyl}-2-oxo-N-1,2,4-thiadiazol-5-yl-2,3-dihydro-1,3-benzoxazole-6-sulfonamide]	301 nM	56
C[C@H](c1ccccc1C#C[C@@H](C)O)n1c(=O)oc2cc(S(=O)(=O)Nc3ncns3)c(F)cc21 [Compound 17-7, 5-fluoro-3-[(1R)-1-{2-[(3R)-3-hydroxybut-1-yn-1-yl]phenyl}ethyl]-2-oxo-N-1,2,4-thiadiazol-5-yl-2,3-dihydro-1,3-benzoxazole-6-sulfonamide]	78 nM	1257
C[C@H](c1ccccc1C#C[C@@H]1CCCN1)n1c(=O)oc2cc(S(=O)(=O)Nc3ncns3)c(F)cc21 [Compound 17-17, 5-fluoro-2-oxo-3-[(1R)-1-{2-[(2S)-pyrrolidin-2-ylethynyl]phenyl}ethyl]-N-1,2,4-thiadiazol-5-yl-2,3-dihydro-1,3-benzoxazole-6-sulfonamide]	29 nM	1034
O=c1oc2cc(S(=O)(=O)Nc3ncns3)c(F)cc2n1C1CCCc2ccccc21 (stereo not shown) [Compound 39-10, 5-fluoro-2-oxo-3-(1,2,3,4-tetrahydronaphthalen-1-yl)-N-1,2,4-thiadiazol-5-yl-2,3-dihydro-1,3-benzoxazole-6-sulfonamide]	168 nM	199
Cc1n[nH]cc1-c1cccc([C@@H](C)n2c(=O)oc3cc(S(=O)(=O)Nc4ncns4)c(F)cc32)c1 [Compound 28-5, 5-fluoro-3-{(1R)-1-[3-(3-methyl-1H-pyrazol-4-yl)phenyl]ethyl}-2-oxo-N-1,2,4-thiadiazol-5-yl-2,3-dihydro-1,3-benzoxazole-6-sulfonamide]	48 nM	64
O=c1oc2cc(S(=O)(=O)Nc3ncns3)c(F)cc2n1Cc1ccccc1 [Compound 11-7, 3-benzyl-5-fluoro-2-oxo-N-1,2,4-thiadiazol-5-yl-2,3-dihydro-1,3-benzoxazole-6-sulfonamide]	545 nM	55
C[C@H](c1ccccc1C#CCN1CCC1)n1c(=O)oc2cc(S(=O)(=O)Nc3ncns3)c(F)cc21 [Compound 17-18, 3-{(1R)-1-[2-(3-azetidin-1-ylprop-1-yn-1-yl)phenyl]ethyl}-5-fluoro-2-oxo-N-1,2,4-thiadiazol-5-yl-2,3-dihydro-1,3-benzoxazole-6-sulfonamide]	28 nM	1085
C[C@@H](c1ccccc1C1CNC1)n1c(=O)oc2cc(S(=O)(=O)Nc3nccs3)c(F)cc21 [Compound 43-20, 3-[(1S)-1-(2-azetidin-3-ylphenyl)ethyl]-5-fluoro-2-oxo-N-1,3-thiazol-2-yl-2,3-dihydro-1,3-benzoxazole-6-sulfonamide]	621 nM	48
NC1CCc2c(cccc2Cn2c(=O)oc3cc(S(=O)(=O)Nc4ncns4)c(F)cc32)C1 (racemic) [Compound 23-8, (+/−)-3-[(6-amino-5,6,7,8-tetrahydronaphthalen-1-yl)methyl]-5-fluoro-2-oxo-N-1,2,4-thiadiazol-5-yl-2,3-dihydro-1,3-benzoxazole-6-sulfonamide]	186 nM	161
C[C@H](c1ccccc1C#Cc1cncn1C)n1c(=O)oc2cc(S(=O)(=O)Nc3ncns3)c(F)cc21 [Compound 17-8, 5-fluoro-3-[(1R)-1-{2-[(1-methyl-1H-imidazol-5-yl)ethynyl]phenyl}ethyl]-2-oxo-N-1,2,4-thiadiazol-5-yl-2,3-dihydro-1,3-benzoxazole-6-sulfonamide]	64 nM	27
O=c1oc2cc(S(=O)(=O)Nc3ncns3)c(F)cc2n1C1CC2(COC2)Oc2ccccc21 (stereo not shown) [Compound 39-4, 3-(3,4-dihydrospiro[chromene-2,3′-oxetan]-4-yl)-5-fluoro-2-oxo-N-1,2,4-thiadiazol-5-yl-2,3-dihydro-1,3-benzoxazole-6-sulfonamide]	312 nM	58
Cl.O=c1oc2cc(S(=O)(=O)Nc3nccs3)c(F)cc2n1Cc1cccc2c1CNCC2(F)F [Compound 44-5, 3-((4,4-Difluoro-1,2,3,4-tetrahydroisoquinolin-8-yl)methyl)-5-fluoro-2-oxo-N-(thiazol-2-yl)-2,3-dihydrobenzo[d]oxazole-6-sulfonamide hydrochloride]	181 nM	151
C[C@H](c1ccccc1C#CCN)n1c(=O)oc2cc(S(=O)(=O)Nc3ncns3)c(F)cc21 [Compound 17-20, 3-{(1R)-1-[2-(3-aminoprop-1-yn-1-yl)phenyl]ethyl}-5-fluoro-2-oxo-N-1,2,4-thiadiazol-5-yl-2,3-dihydro-1,3-benzoxazole-6-sulfonamide]	13 nM	2324
C[C@H](c1ccccc1C#CC1CCCCN1)n1c(=O)oc2cc(S(=O)(=O)Nc3ncns3)c(F)cc21 (stereo partly drawn) [Compound 17-22, 5-fluoro-2-oxo-3-{(1R)-1-[2-(piperidin-2-ylethynyl)phenyl]ethyl}-N-1,2,4-thiadiazol-5-yl-2,3-dihydro-1,3-benzoxazole-6-sulfonamide]	13 nM	1456
C[C@H](c1cccc(-c2ccc(O)nc2)c1)n1c(=O)oc2cc(S(=O)(=O)Nc3ncns3)c(F)cc21 [Compound 28-4, 5-fluoro-3-{(1R)-1-[3-(6-hydroxypyridin-3-yl)phenyl]ethyl}-2-oxo-N-1,2,4-thiadiazol-5-yl-2,3-dihydro-1,3-benzoxazole-6-sulfonamide]	107 nM	181
C[C@H](c1ccccc1C#CC1(N)CC1)n1c(=O)oc2cc(S(=O)(=O)Nc3ncns3)c(F)cc21 [Compound 17-1, (R)-3-(1-(2-((1-aminocyclopropyl)ethynyl)phenyl)ethyl)-5-fluoro-2-oxo-N-(1,2,4-thiadiazol-5-yl)-2,3-dihydrobenzo[d]oxazole-6-sulfonamide]	96 nM	313
C[C@@H](c1ccccc1CCCN)n1c(=O)oc2cc(S(=O)(=O)Nc3ncns3)c(F)cc21 [Compound 33-8]	168 nM	179
C[C@H](c1cccc(C#CCN)c1)n1c(=O)oc2cc(S(=O)(=O)Nc3ncns3)c(F)cc21 [Compound 30-3, (R)-3-(1-(3-(3-aminoprop-1-yn-1-yl)phenyl)ethyl)-5-fluoro-2-oxo-N-(1,2,4-thiadiazol-5-yl)-2,3-dihydrobenzo[d]oxazole-6-sulfonamide]	28 nM	289
Nc1ccc2c(c1)C(n1c(=O)oc3cc(S(=O)(=O)Nc4nccs4)c(F)cc31)CCC2 (stereo not shown) [Compound 43-14, 3-(7-amino-1,2,3,4-tetrahydronaphthalen-1-yl)-5-fluoro-2-oxo-N-1,3-thiazol-2-yl-2,3-dihydro-1,3-benzoxazole-6-sulfonamide]	140 nM	724
O=c1oc2cc(S(=O)(=O)Nc3nccs3)c(F)cc2n1C1CCCc2cccnc21 (stereo not shown) [Compound 43-4, 5-fluoro-2-oxo-3-(5,6,7,8-tetrahydroquinolin-8-yl)-N-1,3-thiazol-2-yl-2,3-dihydro-1,3-benzoxazole-6-sulfonamide]	424 nM	71
C[C@H](c1ccccc1C#CC1CNC1)n1c(=O)oc2cc(S(=O)(=O)Nc3ncns3)c(F)cc21 [Compound 17-16, 3-{(1R)-1-[2-(azetidin-3-ylethynyl)phenyl]ethyl}-5-fluoro-2-oxo-N-1,2,4-thiadiazol-5-yl-2,3-dihydro-1,3-benzoxazole-6-sulfonamide]	31 nM	973
C[C@H](c1ccccc1C#CC(C)(C)N)n1c(=O)oc2cc(S(=O)(=O)Nc3ncns3)c(F)cc21 [Compound 17-10, 3-{(1R)-1-[2-(3-amino-3-methylbut-1-yn-1-yl)phenyl]ethyl}-5-fluoro-2-oxo-N-1,2,4-thiadiazol-5-yl-2,3-dihydro-1,3-benzoxazole-6-sulfonamide]	56 nM	534
O=c1oc2cc(S(=O)(=O)Nc3ncns3)c(F)cc2n1Cc1cccc2c1CC(N1CCC(F)(F)C1)CC2 (racemic) [Compound 23-5, (+/−)-3-{[7-(3,3-difluoropyrrolidin-1-yl)-5,6,7,8-tetrahydronaphthalen-1-yl]methyl}-5-fluoro-2-oxo-N-1,2,4-thiadiazol-5-yl-2,3-dihydro-1,3-benzoxazole-6-sulfonamide]	278 nM	78
